The target of one assay is Galectin-3 (Homo sapiens, UniProt P17931). Put plainly: fluorescence anisotropy assay, compound as inhibitor of galectin / fluorescein tagged saccharide probe interaction. The class given is binding. An excerpt:
(§1) Anal. Biochem. 334: 36-47, (Sörme et al., 2004) and Monovalent interactions of Galectin-1 By Salomonsson, Emma; Larumbe, Amaia; Tejler, Johan; Tullberg, Erik; Rydberg, Hanna; Sundin, Anders; Khabut, Areej; Frejd, Torbjorn; Lobsanov, Yuri D.; Rini, James M.; et al, From Biochemistry (2010), 49(44), 9518-9532, (Salomonsson et al., 2010).
(In general: Fluorescence polarisation rises when a labelled molecule tumbles more slowly, as on binding a larger partner.)

Another assay addresses Galectin-1 (Homo sapiens, UniProt P09382). The description is as above. The format is binding.
Excerpt: as §1

Galectin-1, sequence (P09382 whole entry): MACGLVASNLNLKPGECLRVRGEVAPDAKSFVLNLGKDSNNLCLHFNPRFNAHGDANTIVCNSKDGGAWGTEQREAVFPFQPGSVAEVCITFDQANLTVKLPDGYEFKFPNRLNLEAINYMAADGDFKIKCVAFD
Galectin-3, sequence (P17931 whole entry): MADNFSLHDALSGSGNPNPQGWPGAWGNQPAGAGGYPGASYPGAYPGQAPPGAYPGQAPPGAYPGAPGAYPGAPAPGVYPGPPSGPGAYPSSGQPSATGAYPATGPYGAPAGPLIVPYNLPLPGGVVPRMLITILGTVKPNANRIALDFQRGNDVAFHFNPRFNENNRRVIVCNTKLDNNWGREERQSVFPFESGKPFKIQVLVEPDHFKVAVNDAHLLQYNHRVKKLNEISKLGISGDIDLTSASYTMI

A word on the Kd: it is the concentration at which binding is half-saturated. Read a high Kd as lower affinity. With `COC1C(n2cc(-c3nc(Cl)cs3)nn2)[C@@H](O)C(CO)O[C@@H]1Sc1cc(Cl)cnc1C(=O)N1CCC1` (stereo partly drawn) [Example 45, 5-Chloro-2-(N-azetidinylcarbamoyl)-3-pyridinyl 3-[4-(4-chlorothiazol-2-yl)-1H-1,2,3-triazol-1-yl]-3-deoxy-2-O-methyl-1-thio-α-D-galactopyranoside], the Kd turned out to be 0.074 µM on Galectin-3 and 0.022 µM at Galectin-1.

On to `CO[C@@H]1[C@@H](n2cc(-c3nc(C)cs3)nn2)[C@@H](O)[C@@H](CO)O[C@@H]1Sc1cc(Cl)cnc1-c1ccccn1` [Example 46, 5-Chloro-2-(pyridin-2-yl)pyridin-3-yl 3-deoxy-3-[4-(4-methylthiazol-2-yl)-1H-1,2,3-triazol-1-yl]-2-O-methyl-1-thio-α-D-galactopyranoside], for which the results for the equilibrium dissociation constant (Kd) on Galectin-3 and on Galectin-1 were 2.53 µM and 0.035 µM, respectively.

Take `C#Cc1cncc(S[C@H]2O[C@H](CO)[C@H](O)[C@H](n3cc(-c4nccs4)nn3)[C@H]2OC)c1` [Example 47, 5-Ethynylpyridin-3-yl 3-deoxy-2-O-methyl-3-[4-(2-thiazolyl)-1H-1,2,3-triazol-1-yl]-1-thio-α-D-galactopyranoside]: the figures for the Kd on Galectin-3 and on Galectin-1 were 3.2 µM and 0.57 µM, respectively.

In the case of `OC[C@H]1O[C@H](Sc2cncc(Cl)c2)[C@H](O)[C@@H](n2cc(-c3nc(Cl)cs3)nn2)[C@H]1O` [Example 48, 5-Chloropyridin-3-yl 3-[4-(4-chlorothiazol-2-yl)-1H-1,2,3-triazol-1-yl]-3-deoxy-1-thio-α-D-galactopyranoside], the figures for the Kd on Galectin-3 and on Galectin-1 were 0.42 µM and 0.15 µM, respectively.

Turning to `OC[C@H]1O[C@H](Sc2cncc(Br)c2)[C@H](O)[C@@H](n2cc(-c3nc(Cl)cs3)nn2)[C@H]1O` [Example 49, 5-Bromopyridin-3-yl 3-[4-(4-chlorothiazol-2-yl)-1H-1,2,3-triazol-1-yl]-3-deoxy-1-thio-α-D-galactopyranoside], the figures for the Kd at Galectin-3 and on Galectin-1 were 0.19 µM and 0.15 µM, respectively.

Regarding `N#Cc1ccc(Cl)cc1S[C@H]1O[C@H](CO)[C@H](O)[C@H](n2cc(-c3nc(Cl)cs3)nn2)[C@H]1O` [Example 50, 5-Chloro-2-cyanophenyl 3-[4-(4-chlorothiazol-2-yl)-1H-1,2,3-triazol-1-yl]-3-deoxy-1-thio-α-D-galactopyranoside], the values for the equilibrium dissociation constant (Kd) at Galectin-3 and at Galectin-1 were 0.23 µM and 0.11 µM, respectively.

Take `N#Cc1cc(Cl)cc(S[C@H]2O[C@H](CO)[C@H](O)[C@H](n3cc(-c4nc(Cl)cs4)nn3)[C@H]2O)c1` [Example 51, 3-Chloro-5-cyanophenyl 3-[4-(4-chlorothiazol-2-yl)-1H-1,2,3-triazol-1-yl]-3-deoxy-1-thio-α-D-galactopyranoside]: the Kd on Galectin-3 was 0.37 µM; on Galectin-1, 0.25 µM.

Take `N#Cc1ccc(S[C@H]2O[C@H](CO)[C@H](O)[C@H](n3cc(-c4nc(Cl)cs4)nn3)[C@H]2O)cc1Cl` [Example 52, 3-Chloro-4-cyanophenyl 3-[4-(4-chlorothiazol-2-yl)-1H-1,2,3-triazol-1-yl]-3-deoxy-1-thio-α-D-galactopyranoside]: the Kd on Galectin-3 amounted to 0.41 µM; on Galectin-1, 0.17 µM.

Turning to `CO[C@@H]1[C@@H](n2cc(-c3nc(Cl)cs3)nn2)[C@@H](O)[C@@H](CO)O[C@@H]1Sc1cncc(Cl)c1` [Example 53, 5-Chloropyridin-3-yl 3-[4-(4-chlorothiazol-2-yl)-1H-1,2,3-triazol-1-yl]-3-deoxy-2-O-methyl-1-thio-α-D-galactopyranoside], the Kd at Galectin-3 was determined as 0.34 µM; on Galectin-1, 0.054 µM.

For `CO[C@@H]1[C@@H](n2cc(-c3nc(Cl)cs3)nn2)[C@@H](O)[C@@H](CO)O[C@@H]1Sc1cncc(Br)c1` [Example 54, 5-Bromopyridin-3-yl 3-[4-(4-chlorothiazol-2-yl)-1H-1,2,3-triazol-1-yl]-3-deoxy-2-O-methyl-1-thio-α-D-galactopyranoside], the figures for the Kd at Galectin-3 and at Galectin-1 were 0.19 µM and 0.09 µM, respectively.

For `CO[C@@H]1[C@@H](n2cc(-c3nc(Cl)c(Cl)s3)nn2)[C@@H](O)[C@@H](CO)O[C@@H]1Sc1cc(Br)cnc1C#N` [Example 55, 5-Bromo-2-cyanopyridin-3-yl 3-[4-(4,5-dichlorothiazol-2-yl)-1H-1,2,3-triazol-1-yl]-3-deoxy-2-O-methyl-1-thio-α-D-galactopyranoside], the results for the Kd on Galectin-3 and at Galectin-1 were 0.028 µM and 0.15 µM, respectively.

In the case of `CO[C@@H]1[C@@H](n2cc(-c3nccs3)nn2)[C@@H](O)[C@@H](CO)O[C@@H]1Sc1cc(Br)ccc1C#N` [Example 56, 5-Bromo-2-cyanophenyl 3-deoxy-2-O-methyl-3-[4-(2-thiazolyl)-1H-1,2,3-triazol-1-yl]-1-thio-α-D-galactopyranoside], the equilibrium dissociation constant (Kd) is 2.1 µM at Galectin-3 and 0.096 µM on Galectin-1.

Consider `CO[C@@H]1[C@@H](n2cc(-c3nc(Cl)cs3)nn2)[C@@H](O)[C@@H](CO)O[C@@H]1Sc1cc(Br)ccc1C#N` [Example 57, 5-Bromo-2-cyanophenyl 3-[4-(4-chlorothiazol-2-yl)-1H-1,2,3-triazol-1-yl]-3-deoxy-2-O-methyl-1-thio-α-D-galactopyranoside], for which the Kd amounted to 0.14 µM on Galectin-3 and 0.021 µM at Galectin-1.

For `CO[C@@H]1[C@@H](n2cc(-c3csc(O)n3)nn2)[C@@H](O)[C@@H](CO)O[C@@H]1Sc1cc(Br)ccc1C#N` [Example 58, 5-Bromo-2-cyanophenyl 3-deoxy-3-[4-(2-hydroxythiazol-4-yl)-1H-1,2,3-triazol-1-yl]-2-O-methyl-1-thio-α-D-galactopyranoside], the Kd was 2 µM on Galectin-3 and 0.022 µM on Galectin-1.

Regarding `CO[C@@H]1[C@@H](n2cc(-c3csc(N)n3)nn2)[C@@H](O)[C@@H](CO)O[C@@H]1Sc1cc(Br)ccc1C#N` [Example 59, 5-Bromo-2-cyanophenyl 3-[4-(2-aminothiazol-4-yl)-1H-1,2,3-triazol-1-yl]-3-deoxy-2-O-methyl-1-thio-α-D-galactopyranoside], the Kd at Galectin-3 came to 2.2 µM; on Galectin-1 it was 0.054 µM.

`CNC(=O)c1ccc(Br)cc1S[C@H]1OC(CO)[C@H](O)C(n2cc(-c3nc(Cl)cs3)nn2)C1OC` (stereo partly drawn) [Example 60, 5-Bromo-2-(N-methyl-carbonyl)phenyl 3-[4-(4-chlorothiazol-2-yl)-1H-1,2,3-triazol-1-yl]-3-deoxy-2-O-methyl-1-thio-α-D-galactopyranoside]: the Kd at Galectin-3 amounted to 0.18 µM; on Galectin-1, 0.039 µM.

Regarding `CNC(=O)c1ccc(Br)cc1S[C@H]1OC(CO)[C@H](O)C(n2cc(-c3nccs3)nn2)C1OC` (stereo partly drawn) [Example 61, 5-Bromo-2-(N-methyl-carbonyl)phenyl 3-deoxy-2-O-methyl-3-[4-(2-thiazolyl)-1H-1,2,3-triazol-1-yl]-1-thio-α-D-galactopyranoside], the results for the Kd at Galectin-3 and on Galectin-1 were 3 µM and 0.08 µM, respectively.

Regarding `CNC(=O)c1ccc(Cl)cc1S[C@H]1OC(CO)[C@H](O)C(n2cc(-c3nccs3)nn2)C1OC` (stereo partly drawn) [Example 62, 5-Chloro-2-(N-methyl-carbonyl)phenyl 3-deoxy-2-O-methyl-3-[4-(2-thiazolyl)-1H-1,2,3-triazol-1-yl]-1-thio-α-D-galactopyranoside], the values for the Kd on Galectin-3 and at Galectin-1 were 3.1 µM and 0.078 µM, respectively.

On to `CO[C@@H]1[C@@H](n2cc(-c3nc(C)cs3)nn2)[C@@H](O)[C@@H](CO)O[C@@H]1Sc1cc(Br)ccc1C#N` [Example 63, 5-Bromo-2-cyanophenyl 3-deoxy-3-[4-(4-methylthiazol-2-yl)-1H-1,2,3-triazol-1-yl]-2-O-methyl-1-thio-α-D-galactopyranoside], for which the equilibrium dissociation constant (Kd) at Galectin-3 was 2.9 µM; on Galectin-1 it was 0.054 µM.

Take `CO[C@@H]1[C@@H](n2cc(-c3nc(C)c(Cl)s3)nn2)[C@@H](O)[C@@H](CO)O[C@@H]1Sc1cc(Br)cnc1C#N` [Example 64, 5-Bromo-2-cyanopyridin-3-yl 3-[4-(5-chloro-4-methylthiazol-2-yl)-1H-1,2,3-triazol-1-yl]-3-deoxy-2-O-methyl-1-thio-α-D-galactopyranoside]: the Kd came out at 0.22 µM at Galectin-3 and 0.28 µM on Galectin-1.

On to `CO[C@@H]1[C@@H](n2cc(-c3nc(C)c(Cl)s3)nn2)[C@@H](O)[C@@H](CO)O[C@@H]1Sc1cc(Br)ccc1C#N` [Example 65, 5-Bromo-2-cyanophenyl 3-[4-(5-chloro-4-methylthiazol-2-yl)-1H-1,2,3-triazol-1-yl]-3-deoxy-2-O-methyl-1-thio-α-D-galactopyranoside], for which the Kd was found to be 0.24 µM on Galectin-3 and 0.46 µM at Galectin-1.

Regarding `CO[C@@H]1[C@@H](n2cc(-c3nccs3)nn2)[C@@H](O)[C@@H](CO)O[C@@H]1Sc1cc(Cl)ccc1Cl` [Example 66, 2,5-Dichlorophenyl 3-deoxy-2-O-methyl-3-[4-(2-thiazolyl)-1H-1,2,3-triazol-1-yl]-1-thio-α-D-galactopyranoside], the Kd at Galectin-3 came to 4.1 µM; at Galectin-1, 0.22 µM.

For `CO[C@@H]1[C@@H](n2cc(-c3nccs3)nn2)[C@@H](O)[C@@H](CO)O[C@@H]1Sc1cc(Br)ccc1Cl` [Example 67, 5-Bromo-2-chlorophenyl 3-deoxy-2-O-methyl-3-[4-(2-thiazolyl)-1H-1,2,3-triazol-1-yl]-1-thio-α-D-galactopyranoside], the values for the Kd at Galectin-3 and on Galectin-1 were 3.5 µM and 0.26 µM, respectively.

Consider `CO[C@@H]1[C@@H](n2cc(-c3nccs3)nn2)[C@@H](O)[C@@H](CO)O[C@@H]1Sc1cc(Cl)ccc1F` [Example 68, 5-Chloro-2-fluorophenyl 3-deoxy-2-O-methyl-3-[4-(2-thiazolyl)-1H-1,2,3-triazol-1-yl]-1-thio-α-D-galactopyranoside], for which the Kd at Galectin-3 was found to be 4.4 µM; at Galectin-1, 0.25 µM.

In the case of `CO[C@@H]1[C@@H](n2cc(-c3nc(C)cs3)nn2)[C@@H](O)[C@@H](CO)O[C@@H]1Sc1cc(Br)ccc1F` [Example 69, 5-Bromo-2-fluorophenyl 3-deoxy-3-[4-(4-methylthiazol-2-yl)-1H-1,2,3-triazol-1-yl]-2-O-methyl-1-thio-α-D-galactopyranoside], the Kd was found to be 12 µM on Galectin-3 and 0.65 µM at Galectin-1.
